What was measured:
[1] = molecular target: human dopamine transporter (DAT) (Homo sapiens (Human), UniProt Q01959); assay: Scintillation Proximity Assay (SPA) for human DAT binding ([3H]WIN-35,428); conditions: recombinant human DAT, CHO
Text: (§1) Affinity is expressed in terms of inhibition constant (Ki) of the compounds of the invention for DAT, NET and SERT, and it is typically calculated from the IC50 values obtained in competition experiments using Cheng and Prusoff equation (Cheng and Prusoff, Biochem. Pharmacol. 22:3099, 1973). In the context of the present invention pKi values (corresponding to the antilogarithm of Ki) are used instead of Ki; pKi are only estimated to be accurate to about 0.3 log unit.
(§2) Chinese Hamster Ovary (CHO) cells stably expressing either human DAT (hDAT-CHO) or human NET (hNET-CHO) or human SERT (hSERT-CHO) are used for the membrane preparations for radioligand binding assays using Scintillation proximity Assay (SPA) technique. Each cell line is cultured independently in F-12K Nutrient Mixture containing 10% of Fetal Bovine Serum (FBS) supplemented with 450 μg/ml G-418. When cells are at 70-80% of confluence 3 mM Na Butyrate was added to the cell culture medium. After 24 h of incubation, the culture medium was removed and the cells detached with Versene (DAT) or by scraping (NET and SERT). Cell suspension is centrifuged at 41,000 g for 10 minutes at 4° C. The resultant pellets are re-suspended in 15 volumes of Ice-cold buffer (20 mM HEPES, 145 mM NaCl, 5 mM KCl, pH7.3), homogenized using an Ultra Turrax homogeniser and centrifuged as before. The resultant membrane pellets are re-suspended in up to 15 volume of ice-cold buffer, incubated for 20 minutes at 37° C and centrifuged as before at 41,000 g. The final membrane pellets are re-suspended into 5-10 volumes of ice-cold buffer, dispensed into 0.5 ml aliquots and stored at −80° C. until use. Protein concentration for each preparation is determined using Bio-Rad Protein Assay Kit.
(§3) The affinity of the compounds of the invention to the human DAT or NET or SERT transporters is assessed by using the [^3H]WIN-35,428 or [^3H]nisoxetine or [^3H]citalopram binding assays in recombinant human DAT, NET and SERT membranes with the SPA technology. The final assay volume is 50 μL in 384 well plates.
(§4) Briefly, 0.5 μL of test compound in neat DMSO or 0.5 μL of DMSO for total binding (TB) or 0.5 μL of indatraline 1 mM (10 μM final concentration) for non specific binding (NSB) are added to the assay plate. 50 μL of the SPA mixture is added to each well, containing: 30 μg/mL or 10 μg/mL or 25 μg/mL DAT, NET, SERT membranes, respectively; 5 nM [^3H]WIN-35,428 or 5 nM [^3H]nisoxetine or 1 nM [^3H]citalopram, for DAT, NET, SERT assay, respectively; 2.5 mg/mL or 1 mg/mL or 4 mg/mL WGA-PVT SPA beads (PerkinElmer RPNQ0001, for DAT, NET, SERT assay, respectively. All components are added to Assay Buffer (20 mM HEPES pH 7.4, 145 mM NaCl, 5 mM KCl, 0.01% Pluronic F-127). 0.02% BSA was used for DAT binding only. Plates are sealed with Topseal A and centrifuged 1 min, 800 rpm. Plates are loaded into a 1450 Microbeta TriLux (Perkin-Elmer) plate reader and the radioactivity counted after at least 4 hrs or overnight incubation at room temperature. Curve fitting and IC50 estimations are performed using a four parameter model in XLfit (IDBS, Guilford, UK) for Microdoft Excel (Microsoft, Redmond, Wash.).
The potency of the compounds of the invention in blocking the DAT function is measured using an uptake assay in a recombinant CHO cell line expressing human DAT (hDAT-CHO). Potency is measured in terms of pIC50 by testing the compounds of invention for the inhibition of [^3H]-dopamine uptake in DAT-CHO cells using a SPA technology in 384 well format.
Briefly, on the days of the experiment hDAT-CHO cells are detached using Versene and added (75,000 cells/mL) to the SPA Mixture, which contains the following components in Assay Buffer (20 mM HEPES, 145 mM NaCl, 5 mM KCl, 2 mM CaCl2, 1 mM MgCl2 and 1 g/L glucose, pH 7.3): 0.02% w/v of Pluronic F127, 2 mg/mL SPA Imaging beads (RPNQ0260, PerkinElmer), 10 μM pargyline and 80 nM of [^3H]-dopamine. […]

[2] = molecular target: human serotonin transporter (SERT) (Homo sapiens (Human), UniProt P31645); assay: Scintillation Proximity Assay (SPA) for human SERT binding ([3H]citalopram); conditions: recombinant human SERT, CHO membranes
Chain of human serotonin transporter (SERT) (P31645 whole entry): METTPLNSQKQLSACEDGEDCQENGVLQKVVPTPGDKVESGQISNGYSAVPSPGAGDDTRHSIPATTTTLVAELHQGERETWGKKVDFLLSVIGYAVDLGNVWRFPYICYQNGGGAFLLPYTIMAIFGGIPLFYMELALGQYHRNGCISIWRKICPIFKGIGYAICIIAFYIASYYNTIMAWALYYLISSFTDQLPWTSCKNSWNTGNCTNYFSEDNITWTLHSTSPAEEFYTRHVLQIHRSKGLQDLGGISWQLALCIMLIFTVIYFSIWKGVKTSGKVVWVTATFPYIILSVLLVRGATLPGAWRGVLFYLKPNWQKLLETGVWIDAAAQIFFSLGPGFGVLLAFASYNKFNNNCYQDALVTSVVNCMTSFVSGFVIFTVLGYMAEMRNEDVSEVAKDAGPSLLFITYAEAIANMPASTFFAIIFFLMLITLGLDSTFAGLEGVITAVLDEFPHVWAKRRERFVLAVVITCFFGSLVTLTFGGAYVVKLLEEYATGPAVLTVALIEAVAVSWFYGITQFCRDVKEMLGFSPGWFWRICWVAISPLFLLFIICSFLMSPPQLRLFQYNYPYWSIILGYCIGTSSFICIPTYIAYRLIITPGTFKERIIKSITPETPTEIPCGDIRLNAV
Text: as §1, §2, §3, §4

[3] = molecular target: human norepinephrine transporter (NET) (Homo sapiens (Human), UniProt P23975); assay: Scintillation Proximity Assay (SPA) for human NET binding ([3H]nisoxetine); conditions: recombinant human NET, CHO membranes
Chain of human norepinephrine transporter (NET) (P23975 whole entry): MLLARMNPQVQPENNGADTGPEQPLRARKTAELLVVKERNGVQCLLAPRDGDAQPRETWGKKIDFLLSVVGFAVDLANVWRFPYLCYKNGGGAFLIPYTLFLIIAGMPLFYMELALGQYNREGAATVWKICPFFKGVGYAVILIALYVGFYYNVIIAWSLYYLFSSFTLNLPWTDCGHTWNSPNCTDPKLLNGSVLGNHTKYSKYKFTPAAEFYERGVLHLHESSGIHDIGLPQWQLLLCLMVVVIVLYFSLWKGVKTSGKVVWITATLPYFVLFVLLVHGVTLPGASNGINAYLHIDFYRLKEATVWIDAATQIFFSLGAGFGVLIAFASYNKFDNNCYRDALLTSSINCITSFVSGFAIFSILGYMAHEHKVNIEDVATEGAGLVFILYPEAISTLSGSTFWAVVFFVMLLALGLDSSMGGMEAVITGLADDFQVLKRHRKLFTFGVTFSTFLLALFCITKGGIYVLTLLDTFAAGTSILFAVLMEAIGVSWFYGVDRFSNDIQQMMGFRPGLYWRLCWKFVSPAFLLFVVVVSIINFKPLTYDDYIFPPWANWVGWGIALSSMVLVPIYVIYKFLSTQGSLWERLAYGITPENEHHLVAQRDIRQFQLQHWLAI
Text: as §1, §2, §3, §4

Chain of human dopamine transporter (DAT) (Q01959 whole entry): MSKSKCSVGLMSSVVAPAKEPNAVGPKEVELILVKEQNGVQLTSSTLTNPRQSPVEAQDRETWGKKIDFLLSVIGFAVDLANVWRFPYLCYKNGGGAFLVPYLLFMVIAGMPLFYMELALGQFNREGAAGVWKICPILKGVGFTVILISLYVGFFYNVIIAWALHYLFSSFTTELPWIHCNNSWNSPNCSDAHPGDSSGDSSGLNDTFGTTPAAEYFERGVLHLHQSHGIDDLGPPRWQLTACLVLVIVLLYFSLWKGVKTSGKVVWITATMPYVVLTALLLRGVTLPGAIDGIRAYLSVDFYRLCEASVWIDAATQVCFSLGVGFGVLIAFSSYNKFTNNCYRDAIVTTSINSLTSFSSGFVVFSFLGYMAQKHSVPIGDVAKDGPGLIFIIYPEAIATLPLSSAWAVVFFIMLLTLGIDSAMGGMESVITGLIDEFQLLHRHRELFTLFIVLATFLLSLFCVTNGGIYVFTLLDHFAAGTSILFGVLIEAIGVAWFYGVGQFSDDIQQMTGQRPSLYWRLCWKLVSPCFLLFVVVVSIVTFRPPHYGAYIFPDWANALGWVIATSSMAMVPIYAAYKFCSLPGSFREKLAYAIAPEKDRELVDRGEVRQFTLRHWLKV

Row | Compound | pIC50 DAT [1] | IC50 [2] | pIC50 NET [3] | pIC50 SERT [2]
1 | CC(C)(C)NCC1(O)CCN(c2nc(Oc3cccc(F)c3)cc(C(F)(F)F)n2)CC1 [Example 9, 4-[(tert-butylamino)methyl]-1-[4-(3-fluorophenoxy)-6-(trifluoromethyl)pyrimidin-2-yl]piperidin-4-ol] | 7.91 | 11.2 µM | 6.02 | 
2 | O=C1CCCN1CC1(O)CCN(c2nc(Oc3cccc(F)c3)cc(C(F)(F)F)n2)CC1 [Example 10, 1-({1-[4-(3-fluorophenoxy)-6-(trifluoromethyl)pyrimidin-2-yl]-4-hydroxypiperidin-4-yl}methyl)pyrrolidin-2-one] | 7.18 | > 100 µM | 5.33 | 
3 | Cl.NCC1(O)CCN(c2nc(Oc3cccc(F)c3)cc(C(F)(F)F)n2)CC1 [Example 12, 4-(aminomethyl)-1-[4-(3-fluorophenoxy)-6-(trifluoromethyl)pyrimidin-2-yl]piperidin-4-ol hydrochloride] | 8.56 | 8.71 µM | 6.84 | 
4 | NCC1(O)CCN(c2cc(F)cc(Oc3cccc(F)c3)c2)CC1 [Example 14, 4-(aminomethyl)-1-[3-fluoro-5-(3-fluorophenoxy)phenyl]piperidin-4-ol] | 8.82 | 0.603 µM | 6.93 | 
5 | NCC1(O)CCN(c2cc(F)cc(Oc3cccc(F)c3)c2F)CC1 [Example 15, 4-(aminomethyl)-1-[2,5-difluoro-3-(3-fluorophenoxy)phenyl]piperidin-4-ol] | 9.04 | 0.661 µM | 7.24 | 
6 | NCC1(O)CCN(c2cccc(Oc3ccccc3)c2F)CC1 [Example 16, 4-(aminomethyl)-1-(2-fluoro-3-phenoxyphenyl)piperidin-4-ol] | 7.81 | 1.45 µM | 6.01 | 
7 | NCC1(O)CCN(c2cccc(Oc3cccc(F)c3)c2F)CC1 [Example 17, 4-(aminomethyl)-1-[2-fluoro-3-(3-fluorophenoxy)phenyl]piperidin-4-ol] | 8.17 | 2.09 µM | 6.49 | 
8 | NC1(CO)CCN(c2nc(Oc3cccc(F)c3)cc(C(F)(F)F)n2)CC1 [Example 20, {4-amino-1-[4-(3-fluorophenoxy)-6-(trifluoromethyl)pyrimidin-2-yl]piperidin-4-yl}methanol] | 8.39 | 5.13 µM | 6.50 | 
9 | O=C(CC1CC1)NCC1(O)CCN(c2nc(Oc3cccc(F)c3)cc(C(F)(F)F)n2)CC1 [Example 22, 2-cyclopropyl-N-({1-[4-(3-fluorophenoxy)-6-(trifluoromethyl)pyrimidin-2-yl]-4-hydroxypiperidin-4-yl}methyl)acetamide] | 7.58 | > 100 µM | 5.76 | 
10 | CC(C)OCC(=O)NCC1(O)CCN(c2nc(Oc3cccc(F)c3)cc(C(F)(F)F)n2)CC1 [Example 23, N-({1-[4-(3-fluorophenoxy)-6-(trifluoromethyl)pyrimidin-2-yl]-4-hydroxypiperidin-4-yl}methyl)-2-(propan-2-yloxy)acetamide] | 7.75 | > 100 µM | 5.55 | 
11 | CC(=O)NCC1(O)CCN(c2nc(Oc3cccc(F)c3)cc(C(F)(F)F)n2)CC1 [Example 24, N-({1-[4-(3-fluorophenoxy)-6-(trifluoromethyl)pyrimidin-2-yl]-4-hydroxypiperidin-4-yl}methyl)acetamide] | 7.42 | > 100 µM | 5.04 | 
12 | OC1(CNC2CC2)CCN(c2nc(Oc3cccc(F)c3)cc(C(F)(F)F)n2)C1 (stereo not drawn) [Example 30, 3-[(cyclopropylamino)methyl]-1-[4-(3-fluorophenoxy)-6-(trifluoromethyl)pyrimidin-2-yl]pyrrolidin-3-ol] | 8.72 | 34.7 µM | 6.78 | 
13 | CC(C)C(=O)NCC1(O)CCN(c2nc(Oc3cccc(F)c3)cc(C(F)(F)F)n2)C1 (stereo not drawn) [Example 34, N-({1-[4-(3-fluorophenoxy)-6-(trifluoromethyl)pyrimidin-2-yl]-3-hydroxypyrrolidin-3-yl}methyl)-2-methylpropanamide] | 6.50 | > 100 µM | 4.72 | 
14 | O=C(NCC1(O)CCN(c2nc(Oc3cccc(F)c3)cc(C(F)(F)F)n2)C1)C1CNC1 (stereo not drawn) [Example 35, N-({1-[4-(3-fluorophenoxy)-6-(trifluoromethyl)pyrimidin-2-yl]-3-hydroxypyrrolidin-3-yl}methyl)azetidine-3-carboxamide] | 8.25 | 33.1 µM | 6.56 | 
15 | (3R or 3S)-3-[(cyclopropylamino)methyl]-1-[4-(3-fluorophenoxy)-6-(trifluoromethyl)pyrimidin-2-yl]pyrrolidin-3-ol [Example 32] | 8.47 |  | 6.63 | 4.36
